Experimental data: US12521375B2, “Pharmaceutical composition for treating fatty liver disease” (Shionogi & Co., Ltd., priority 2020, dated 2026)

System: not listed separately
Test: Metabolic stability test (rat)
Format: in vitro ADME
Settings: not given
Experimental: [Worded in the source for another species; this species is reported under the same test.] (§1) Commercially available pooled human liver microsomes were reacted with the compound of the present invention for a given time. A residual rate was calculated by comparison between the reacted sample and the unreacted sample to evaluate a degree at which the compound of the present invention is metabolized in the liver.
(§2) The compound was reacted at 37° C. for 0 minutes or 30 minutes in the presence of 1 mmol/L NADPH in 0.2 mL of a buffer (50 mmol/L Tris-HCl pH 7.4, 150 mmol/L potassium chloride, and 10 mmol/L magnesium chloride) containing 0.5 mg protein/mL of the human liver microsomes (oxidative reaction). After the reaction, 50 μL of the reaction solution was added to 100 μL of a solution of methanol/acetonitrile=1/1 (v/v) and mixed, and the mixture was centrifuged at 3000 rpm for 15 minutes. The compound of the present invention in the centrifuged supernatant was quantified by LC/MS/MS or solid-phase extraction (SPE)/MS. The amount of the compound of the present invention remained after the reaction was calculated with the amount of the compound at 0 minutes of the reaction defined as 100%.

| Compound | Amount of compound remained, Rat [%] |
| --- | --- |
| CC(=O)N[C@H](C)C(F)(F)C[C@H]1CC[C@H](Oc2nc3c(F)cc(OCC(F)F)c(F)c3n2C)CO1 [Compound I-7] | 74.7 |
| CC(=O)N[C@@H](CF)CO[C@H]1CC[C@H](Oc2nc3c(F)cc(OC4CC4)cc3n2C)CC1 [Compound I-4] | 87.3 |
| CC(=O)N[C@@H](C)CO[C@H]1CC[C@H](Oc2nc3c(Cl)cc(OC4CC4)cc3n2C)CC1 [Compound I-3] | 82.6 |
| CC(=O)N[C@@H](C)CO[C@H]1CC[C@H](Oc2nc3c(F)cc(OC4CC4)cc3n2C)CC1 [Compound I-15] | 76.2 |
| C[C@@H](CCC1OCC(Oc2nc3c(F)cc(OCC(F)F)c(F)c3n2C)CO1)NC(N)=O (stereo partly drawn) [Compound I-11] | 94.5 |
| C[C@@H](CO[C@H]1CC[C@H](Oc2nc3c(Cl)cc(OC4CC4)cc3n2C)CC1)NC(N)=O [Compound I-8] | 85.4 |
| CC(=O)N[C@@H](C)C(F)(F)C[C@H]1CC[C@H](Oc2nc3c(F)cc(OCC(F)F)c(F)c3n2C)CO1 [Compound I-6] | 74 |
| Cn1c(O[C@H]2CC[C@H](OC[C@H](CF)NC(N)=O)CC2)nc2c(F)cc(OC3CC3)cc21 [Compound I-5] | 83.4 |
| CC(=O)N[C@@H](C)CO[C@H]1CC[C@H](Oc2nc3c(F)cc(OCC(F)F)c(F)c3n2C)CC1 [Compound I-14] | 78 |

System: healthy subjects
Test: not given
Settings: repeated administration to healthy subjects; cited from earlier work

| Compound | platelet concentration |
| --- | --- |
| Cc1nc2ccc(C(=O)N3CCC4(CC3)CC(=O)c3c(cnn3C(C)C)C4)cc2[nH]1 [PF-05175157] | reduced a platelet concentration |

Molecular target: recombinant human ACC2 (Homo sapiens (Human), UniProt O00763)
Test: Measurement of inhibitory activity of human ACC2
Format: biochemical
Settings: read-out: IC50 hACC2
Description: A cDNA encoding human ACC2 protein (27 amino acid residues to 2458 amino acid residues from the N-terminus) was cloned from a human kidney cDNA library (Clontech Laboratories, Inc.), a His-tag sequence was introduced at the 5′ end, and then inserted into pFastBac1 (Invitrogen). A recombinant baculovirus was produced in accordance with the protocol for a Bac-to-Bac baculovirus expression system (Invitrogen), and Sf-9 cells were infected therewith to express human ACC2 protein. The recovered cells were crushed, filtered through a filter, and then subjected to Ni affinity chromatography and anion exchange chromatography. Fractions containing human ACC2 protein were collected to obtain recombinant human ACC2.
The recombinant human ACC1 and the recombinant human ACC2 obtained from the above Preparation Examples were preincubated in an assay buffer (50 mM HEPES-KOH (pH 7.4), 10 mM magnesium chloride, 6 to 10 mM potassium citrate, 4 mM reduced glutathione, and 1.5 mg/ml bovine serum albumin) for 1 hour. […] After incubation, the enzymatic reaction was stopped by addition of EDTA, and then the compound was co-crystallized with an α-cyano-4-hydroxy cinnamic acid (CHCA) matrix on a MALDI target plate, and measurement was performed in a reflector negative mode using a matrix-assisted laser desorption ionization-time-of-flight mass spectrometer (MALDI-TOF MS). Deprotonated ions of the substrate acetyl-CoA (AcCoA) and the reaction product malonyl-CoA (MalCoA) were detected, and the intensity of each signal was used to calculate a conversion rate to malonyl-CoA […], i.e., intensity of [MalCoA-H]-/(intensity of [MalCoA-H]-+intensity of [AcCoA-H]-). […] The potassium citrate concentration in the assay buffer, the potassium bicarbonate concentration in the substrate solution, and the incubation time were adjusted within the above concentrations or reaction times for each lot of the enzyme to be used.

recombinant human ACC2, sequence (O00763 27-2458): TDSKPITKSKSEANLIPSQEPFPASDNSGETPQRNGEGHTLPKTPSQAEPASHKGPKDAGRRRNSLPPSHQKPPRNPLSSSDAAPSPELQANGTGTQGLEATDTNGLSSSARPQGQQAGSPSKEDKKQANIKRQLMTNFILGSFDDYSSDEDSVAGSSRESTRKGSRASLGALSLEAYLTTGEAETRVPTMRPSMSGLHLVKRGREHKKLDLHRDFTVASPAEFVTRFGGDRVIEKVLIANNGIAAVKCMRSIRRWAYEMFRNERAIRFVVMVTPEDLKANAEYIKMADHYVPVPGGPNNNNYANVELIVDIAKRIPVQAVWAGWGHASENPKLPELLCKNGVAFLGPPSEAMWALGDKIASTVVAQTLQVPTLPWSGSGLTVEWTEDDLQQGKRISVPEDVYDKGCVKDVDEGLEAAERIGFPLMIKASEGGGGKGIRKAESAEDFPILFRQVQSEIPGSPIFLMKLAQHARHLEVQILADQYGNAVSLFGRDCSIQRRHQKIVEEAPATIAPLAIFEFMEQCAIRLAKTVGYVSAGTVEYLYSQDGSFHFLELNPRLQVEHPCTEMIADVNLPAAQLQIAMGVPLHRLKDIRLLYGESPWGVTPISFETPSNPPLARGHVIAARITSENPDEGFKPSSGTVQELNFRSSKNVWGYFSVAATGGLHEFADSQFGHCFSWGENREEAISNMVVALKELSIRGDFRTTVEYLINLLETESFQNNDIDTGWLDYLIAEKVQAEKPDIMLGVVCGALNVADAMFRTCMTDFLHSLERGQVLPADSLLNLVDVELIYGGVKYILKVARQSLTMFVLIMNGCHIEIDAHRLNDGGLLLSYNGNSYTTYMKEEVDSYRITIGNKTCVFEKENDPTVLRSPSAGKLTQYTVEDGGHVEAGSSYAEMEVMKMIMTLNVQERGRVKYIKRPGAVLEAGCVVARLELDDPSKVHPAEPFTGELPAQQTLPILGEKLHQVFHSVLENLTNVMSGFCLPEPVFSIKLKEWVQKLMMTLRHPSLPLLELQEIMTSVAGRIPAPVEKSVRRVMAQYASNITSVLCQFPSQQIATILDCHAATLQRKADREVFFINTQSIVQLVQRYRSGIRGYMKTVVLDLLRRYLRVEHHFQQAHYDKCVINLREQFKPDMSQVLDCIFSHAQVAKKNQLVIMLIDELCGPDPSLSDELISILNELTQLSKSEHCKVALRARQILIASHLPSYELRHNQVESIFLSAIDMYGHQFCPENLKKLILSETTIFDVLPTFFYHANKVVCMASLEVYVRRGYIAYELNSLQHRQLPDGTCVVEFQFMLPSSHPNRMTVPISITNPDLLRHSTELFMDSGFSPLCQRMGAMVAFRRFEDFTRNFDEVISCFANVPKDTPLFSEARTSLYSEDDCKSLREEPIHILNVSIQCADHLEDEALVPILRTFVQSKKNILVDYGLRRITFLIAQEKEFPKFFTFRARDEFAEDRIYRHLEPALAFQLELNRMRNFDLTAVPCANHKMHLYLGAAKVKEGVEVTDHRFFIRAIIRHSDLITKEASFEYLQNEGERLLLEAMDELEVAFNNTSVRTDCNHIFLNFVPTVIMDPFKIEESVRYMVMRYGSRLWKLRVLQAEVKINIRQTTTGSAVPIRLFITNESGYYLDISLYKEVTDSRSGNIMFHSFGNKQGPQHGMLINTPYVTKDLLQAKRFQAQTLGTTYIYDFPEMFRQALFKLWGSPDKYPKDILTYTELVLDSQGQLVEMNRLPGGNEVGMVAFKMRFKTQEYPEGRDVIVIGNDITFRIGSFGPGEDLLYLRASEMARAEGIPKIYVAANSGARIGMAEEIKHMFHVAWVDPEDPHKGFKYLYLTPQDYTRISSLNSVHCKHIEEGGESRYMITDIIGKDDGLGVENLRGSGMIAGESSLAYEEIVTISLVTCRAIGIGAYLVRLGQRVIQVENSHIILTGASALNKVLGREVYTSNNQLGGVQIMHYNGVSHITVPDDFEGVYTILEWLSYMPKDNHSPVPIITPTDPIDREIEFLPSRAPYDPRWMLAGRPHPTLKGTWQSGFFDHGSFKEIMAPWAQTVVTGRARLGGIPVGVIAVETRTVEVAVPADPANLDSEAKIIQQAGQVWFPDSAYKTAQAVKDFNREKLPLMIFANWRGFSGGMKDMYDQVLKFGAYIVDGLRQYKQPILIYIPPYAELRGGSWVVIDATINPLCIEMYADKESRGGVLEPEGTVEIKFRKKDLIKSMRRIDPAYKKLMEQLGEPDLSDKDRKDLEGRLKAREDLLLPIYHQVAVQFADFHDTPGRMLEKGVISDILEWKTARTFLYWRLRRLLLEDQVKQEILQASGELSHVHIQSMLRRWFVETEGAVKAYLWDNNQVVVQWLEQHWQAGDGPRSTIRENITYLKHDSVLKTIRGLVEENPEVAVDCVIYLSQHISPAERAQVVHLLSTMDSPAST

| Compound | IC50 [nM] |
| --- | --- |
| CC(=O)N[C@@H](C)CC(F)(F)[C@@H]1CC[C@@H](Oc2nc3c(F)cc(OCC(F)F)c(F)c3n2C)CO1 [Compound I-10] | 89 |
| CC(=O)N[C@H](C)C(F)(F)C[C@H]1CC[C@H](Oc2nc3c(F)cc(OCC(F)F)c(F)c3n2C)CO1 [Compound I-7] | 180 |
| CC(=O)N[C@@H](CF)CO[C@H]1CC[C@H](Oc2nc3c(F)cc(OC4CC4)cc3n2C)CC1 [Compound I-4] | 4.7 |
| CC(=O)N[C@@H](C)CC[C@H]1OC[C@H](Oc2nc3c(F)cc(OCC(F)F)c(F)c3n2C)C[C@@H]1F [Compound I-2] | 10 |
| CC(=O)N[C@@H](C)CO[C@H]1CC[C@H](Oc2nc3c(F)cc(OC4CC4)cc3n2C)CC1 [Compound I-15] | 3.8 |
| C[C@@H](CCC1OCC(Oc2nc3c(F)cc(OCC(F)F)c(F)c3n2C)CO1)NC(N)=O (stereo partly drawn) [Compound I-11] | 9.6 |
| C[C@@H](CO[C@H]1CC[C@H](Oc2nc3c(Cl)cc(OC4CC4)cc3n2C)CC1)NC(N)=O [Compound I-8] | 17 |
| CC(=O)N[C@@H](C)C(F)(F)C[C@H]1CC[C@H](Oc2nc3c(F)cc(OCC(F)F)c(F)c3n2C)CO1 [Compound I-6] | 12 |
| Cn1c(O[C@H]2CC[C@H](OC[C@H](CF)NC(N)=O)CC2)nc2c(F)cc(OC3CC3)cc21 [Compound I-5] | 8.9 |
| CC(=O)N[C@@H](C)CC[C@H]1OC[C@H](Oc2nc3c(F)cc(OCC(F)F)c(F)c3n2C)CC1(F)F [Compound I-9] | 13 |
| CC(=O)N[C@@H](C)CO[C@H]1CC[C@H](Oc2nc3c(F)cc(OCC(F)F)c(F)c3n2C)CC1 [Compound I-14] | 6.6 |

System: NAFLD patients
Test: not given
Settings: cited from earlier work

| Compound | Plasma triglyceride concentration |
| --- | --- |
| COc1cc(C(=O)N2CCC3(CC2)CC(=O)c2cc(-c4cncc(C(=O)O)c4)ccc2O3)cc2c1c(C)cn2C1CC1 [MK-4074] | elevated plasma triglyceride concentration |

Same assay, conditions: phase II study over 12 weeks; cited from earlier work

| Compound | Plasma triglyceride concentration |
| --- | --- |
| COc1ccccc1[C@H](Cn1c(=O)n(C(C)(C)C(=O)O)c(=O)c2c(C)c(-c3ncco3)sc21)OC1CCOCC1 [firsocostat] | elevated plasma triglyceride concentration |

Molecular target: recombinant human ACC1 (Homo sapiens (Human), UniProt Q13085)
Test: Measurement of inhibitory activity of human ACC1
Format: biochemical
Settings: read-out: IC50 hACC1
Description: A cDNA encoding human ACC1 protein (1 amino acid residue to 2346 amino acid residues from the N-terminus) was cloned from a human liver cDNA library (BioChain Institute Inc.), myc tag and His-tag sequences were introduced at the 3′ end, and then inserted into pIEXBAC3 (Novagen). A recombinant baculovirus was produced in accordance with the protocol for FlashBACGOLD (Oxford Expression Technologies Ltd.), and Sf-9 cells were infected therewith to express human ACC1 protein. The recovered cells were crushed, filtered through a filter, and then subjected to Ni affinity chromatography and anion exchange chromatography. Fractions containing human ACC1 protein were collected to obtain recombinant human ACC1.
The recombinant human ACC1 and the recombinant human ACC2 obtained from the above Preparation Examples were preincubated in an assay buffer (50 mM HEPES-KOH (pH 7.4), 10 mM magnesium chloride, 6 to 10 mM potassium citrate, 4 mM reduced glutathione, and 1.5 mg/ml bovine serum albumin) for 1 hour. Then, 5 μL of the pre-incubated enzyme solution and 5 μL of a substrate solution (50 mM HEPES-KOH (pH 7.4), 1 mM ATP, 0.8 mM acetyl-CoA, and 25 to 50 mM potassium bicarbonate) were added to a 384-well microplate into which 0.2 μL of each of solutions of the compound of the present invention (DMSO) had been dispensed, and the mixture was centrifuged and shaken, and then incubated in a wet box at room temperature for 1 to 3 hours. After incubation, the enzymatic reaction was stopped by addition of EDTA, and then the compound was co-crystallized with an α-cyano-4-hydroxy cinnamic acid (CHCA) matrix on a MALDI target plate, and measurement was performed in a reflector negative mode using a matrix-assisted laser desorption ionization-time-of-flight mass spectrometer (MALDI-TOF MS). Deprotonated ions of the substrate acetyl-CoA (AcCoA) and the reaction product malonyl-CoA (MalCoA) were detected, and the intensity of each signal was used to calculate a conversion rate to malonyl-CoA […], i.e., intensity of [MalCoA-H]-/(intensity of [MalCoA-H]-+intensity of [AcCoA-H]-). […] The potassium citrate concentration in the assay buffer, the potassium bicarbonate concentration in the substrate solution, and the incubation time were adjusted within the above concentrations or reaction times for each lot of the enzyme to be used.

| Compound | IC50 [nM] |
| --- | --- |
| CC(=O)N[C@@H](C)CC(F)(F)[C@@H]1CC[C@@H](Oc2nc3c(F)cc(OCC(F)F)c(F)c3n2C)CO1 [Compound I-10] | > 100000 |
| CC(=O)N[C@H](C)C(F)(F)C[C@H]1CC[C@H](Oc2nc3c(F)cc(OCC(F)F)c(F)c3n2C)CO1 [Compound I-7] | 25000 |
| CC(=O)N[C@@H](CF)CO[C@H]1CC[C@H](Oc2nc3c(F)cc(OC4CC4)cc3n2C)CC1 [Compound I-4] | 2700 |
| CC(=O)N[C@@H](C)CO[C@H]1CC[C@H](Oc2nc3c(Cl)cc(OC4CC4)cc3n2C)CC1 [Compound I-3] | 2800 |
| CC(=O)N[C@@H](C)CC[C@H]1OC[C@H](Oc2nc3c(F)cc(OCC(F)F)c(F)c3n2C)C[C@@H]1F [Compound I-2] | 2400 |
| CC(=O)N[C@@H](C)CO[C@H]1CC[C@H](Oc2nc3c(F)cc(OC4CC4)cc3n2C)CC1 [Compound I-15] | 1700 |
| C[C@@H](CCC1OCC(Oc2nc3c(F)cc(OCC(F)F)c(F)c3n2C)CO1)NC(N)=O (stereo partly drawn) [Compound I-11] | 7000 |
| C[C@@H](CO[C@H]1CC[C@H](Oc2nc3c(Cl)cc(OC4CC4)cc3n2C)CC1)NC(N)=O [Compound I-8] | 6200 |
| CC(=O)N[C@@H](C)C(F)(F)C[C@H]1CC[C@H](Oc2nc3c(F)cc(OCC(F)F)c(F)c3n2C)CO1 [Compound I-6] | 920 |
| Cn1c(O[C@H]2CC[C@H](OC[C@H](CF)NC(N)=O)CC2)nc2c(F)cc(OC3CC3)cc21 [Compound I-5] | 6900 |
| CC(=O)N[C@@H](C)CC[C@H]1OC[C@H](Oc2nc3c(F)cc(OCC(F)F)c(F)c3n2C)CC1(F)F [Compound I-9] | 2600 |
| CC(=O)N[C@@H](C)CO[C@H]1CC[C@H](Oc2nc3c(F)cc(OCC(F)F)c(F)c3n2C)CC1 [Compound I-14] | 2700 |
| CC(=O)N[C@@H](C)CO[C@H]1CC[C@H](Oc2nc3c(F)cc(OC4CCC4)cc3n2C)CC1 [Compound I-1] | 320 |

System: not listed separately
Test: Metabolic stability test (human)
Format: in vitro ADME
Settings: human liver microsomes, 37° C., 30 minutes, NADPH
Experimental: as §1, §2

| Compound | Amount of compound remained, Human [%] |
| --- | --- |
| CC(=O)N[C@H](C)C(F)(F)C[C@H]1CC[C@H](Oc2nc3c(F)cc(OCC(F)F)c(F)c3n2C)CO1 [Compound I-7] | 89.1 |
| CC(=O)N[C@@H](CF)CO[C@H]1CC[C@H](Oc2nc3c(F)cc(OC4CC4)cc3n2C)CC1 [Compound I-4] | 93.4 |
| CC(=O)N[C@@H](C)CO[C@H]1CC[C@H](Oc2nc3c(Cl)cc(OC4CC4)cc3n2C)CC1 [Compound I-3] | 80.3 |
| CC(=O)N[C@@H](C)CO[C@H]1CC[C@H](Oc2nc3c(F)cc(OC4CC4)cc3n2C)CC1 [Compound I-15] | 80.2 |
| C[C@@H](CCC1OCC(Oc2nc3c(F)cc(OCC(F)F)c(F)c3n2C)CO1)NC(N)=O (stereo partly drawn) [Compound I-11] | 95.8 |
| C[C@@H](CO[C@H]1CC[C@H](Oc2nc3c(Cl)cc(OC4CC4)cc3n2C)CC1)NC(N)=O [Compound I-8] | 83.6 |
| CC(=O)N[C@@H](C)C(F)(F)C[C@H]1CC[C@H](Oc2nc3c(F)cc(OCC(F)F)c(F)c3n2C)CO1 [Compound I-6] | 93.2 |
| Cn1c(O[C@H]2CC[C@H](OC[C@H](CF)NC(N)=O)CC2)nc2c(F)cc(OC3CC3)cc21 [Compound I-5] | 98.9 |
| CC(=O)N[C@@H](C)CO[C@H]1CC[C@H](Oc2nc3c(F)cc(OCC(F)F)c(F)c3n2C)CC1 [Compound I-14] | 94.8 |
